Consider nine compounds from publication PMC8399847, “Hybrid Quinolinyl Phosphonates as Heterocyclic Carboxylate Isosteres: Synthesis and Biological Evaluation against Topoisomerase 1B (TOP1B)” (Pharmaceuticals, 2021).

For assay [1], the system named is HEK293 (human embryonic kidney). The experiment in a line: CCK-8 cytotoxicity assay, HEK293. To be noted: HEK293, 48 h, CCK-8, 50% growth inhibition. It counts as cell-based. How it is done: (§1) The cytotoxicity of the newly synthesized quinolinylphosphonates 7 was evaluated in vitro by testing their antiproliferative activities against several human cancer cell lines: A549 (human lung adenocarcinoma cells), SKOV3 (human ovarian carcinoma), and HEK293 (human embryonic kidney). In order to analyze the selective cytotoxicity facing exclusively cancerous cell lines, cytotoxicity against non-cancerous cell lines (MRC-5, lung fibroblast cells) was also evaluated. Cell counting kit (CCK-8) assay was employed to assess growth inhibition and, cell proliferation inhibitory activities of compounds that are listed in Table 1 as IC50 values. […] According to the data presented in Table 1, in general, all these phosphorated derivatives present higher selective cytotoxicity in the A549 cell line than in the other two cell lines, SKOV3 and HEK293, although slight differences are observed compared to human ovarian carcinoma (SKOV3).
(§2) Cells were cultured according to the supplier’s instructions, A549 (ATCC® CCL-185), SKOV3 (ATCC® HTB-77), HEK293 (CLS GmbH), MRC-5 (ATCC® CCL-171™). Cells were seeded in 96-well plates at a density of 2–2.5 × 10^3 cells per well and incubated overnight in 0.1 mL of media supplied with 10% Fetal Bovine Serum (Lonza, Basel, Switzerland) in a 5% CO2 incubator at 37 °C. On day 2, drugs (concentration between 0.5–50 μM) were added and samples were incubated for 48 h. After treatment, 10 μL of cell counting kit-8 was added to each well for an additional 2 h incubation at 37 °C. The absorbance of each well was determined by an Automatic Elisa Reader System at 450 nm wavelength. CPT was purchased from Sigma-Aldrich and used as a positive control.
On the technique in general: Tetrazolium dyes change colour on reduction, which living cells bring about.

Assay [2] relates to A549 (human lung adenocarcinoma cells). The experiment in a line: CCK-8 cytotoxicity assay, A549. The class given is cell-based. The settings on record: A549, 48 h, read-out: Cytotoxicity IC50 Lung A549. The procedure:
as §1, §2

For assay [3], the system named is L. infantum amastigotes. The experiment in a line: Ex vivo murine splenic explant culture, intramacrophage amastigotes. It counts as cell-based. To be noted: Leishmania infantum, Hec50; intramacrophage amastigotes in splenic explants, 96 h, EC50 ± SD. How it is done:
(§3) The effect of the new quinolinylphosphonate derivatives 7 synthesized was assessed on both free-living promastigotes and intramacrophage amastigotes of L. infantum as it is described in experimental protocols. Primary cultures of intramacrophage amastigotes were obtained from splenic explants from 6-weeks infected Balb/c mice with L. infantum-iRFP promastigotes. The infrared fluorescence emitted by both stage forms of the parasite was used as viability criterium, using 0.5% DMSO as negative control (100% viability) and […] AMB as a positive control (0% viability).
The EC50 values of compounds against the amastigote forms were calculated using a cell suspension obtained from spleens extracted from BALB/c mice. Mice had been infected previously with iRFP L. infantum metacyclic promastigotes and sacrificed five weeks after infection. To obtain the cell suspension containing amastigotes, spleens washed with cold phosphate-buffered saline (PBS), were cut into pieces, and incubated with 5 mL of 2 mg/mL collagenase D (Sigma, Darmstadt, Germany), which was prepared in buffer (10 mM HEPES, pH 7.4, 150 mM NaCl, 5 mM KCl, 1 mM MgCl2 and 1.8 mM CaCl2) for 20 min. Subsequently, these cells were passed through a 100 µm cell strainer, collected by centrifugation (500× g for 7 min at 4 °C), washed twice with PBS, and suspended in RPMI medium (Gibco, Thermo Fisher Scientific, MA, USA) supplemented with 10 mM HEPES, 1 mM sodium pyruvate, 1xRPMI 1640 vitamin mix, 10% (v/v) FBS, 50 U/mL penicillin and 50 µg/mL streptomycin, at 37 °C under a 5% CO2 atmosphere.
To assay the effect of the different compounds against amastigotes, which infect splenic cells, these cells were seeded to confluence into 384-well black optical bottom plates (Thermo Scientific, Waltham, MA, USA) in addition to different concentrations of compound to each well. The viability of amastigotes was calculated by recording their fluorescence at 708 nm in an Odyssey (Li-Cor, NE, USA) infrared imaging system, after 96 h of exposure. Plots of the infrared fluorescence against the concentrations of tested compounds were fitted by nonlinear analysis using the Sigma Plot 10.1 statistical package and used to calculate EC50 values. As well as promastigotes viability, the assays were performed in triplicate.

Assay [4] has as its system murine splenocytes. The experiment in a line: Splenocyte viability, Alamar Blue. The class given is cell-based, BALB/c mice. The settings on record: for IC50: Mus musculus, Splenocyte, read-out: IC50 Splenocites; for SI (selectivity index): ratio IC50 splenic cells / EC50 amastigotes. How it is done:
The viability of splenocytes cells against the different compounds was measured using the Alamar Blue staining method (Invitrogen, MA, USA). For this purpose, these cells were obtained following the protocol indicated in the previous section, from uninfected mice. Plots of absorbance of viable cells (obtained following manufacturer’s recommendations of Alamar Blue) vs compounds concentration were used to calculate CC50 values. Plots were fitted by nonlinear analysis using the Sigma Plot 10.1 statistical package. The assays were performed by triplicate.
The selectivity index for each compound was calculated as the ratio between the IC50 value for splenic cells and the EC50 value for amastigotes.

Assay [5] deals with L. infantum promastigotes. The experiment in a line: In vitro iRFP-L. infantum promastigotes viability assay. The class given is cell-based. To be noted: Leishmania infantum; 96 h exposure, EC50 ± SD. How it is done: as §3
A genetically modified strain of L infantum BCN 150, expressing iRFP protein from Rhodopseudomonas palustris bacteriophytochrome (iRFP-L. infantum), was used to obtain the EC50 values of the different compounds against promastigotes, through the detection of the near-infrared radiation emitted by living parasites exposed to tested molecules. Thus, the viability of promastigotes was calculated after recording their fluorescence at 708 nm in an Odyssey (Li-Cor, NE, USA) infrared imaging.
iRFP-L. infantum promastigotes were cultured using M199 medium (Gibco, Thermo Fisher Scientific, MA, USA), supplemented with 25 mM 4-(2-hydroxyethyl)-1-piperazineethanesulfonic acid (HEPES) pH 6.9, […] hemin, 10 mM glutamine, 0.1 mM adenosine, 0.01 mM folic acid, 1× RPMI 1640 vitamin mix (Sigma, Darmstadt, Germany), 10% (v/v) heat-inactivated foetal bovine serum (Gibco, Thermo Fisher Scientific, MA, USA), 50 U/mL penicillin and 50 µg/mL streptomycin. The assay was carried out, seeding 1 × 10^6 cells/mL of iRFP-L. infantum promastigotes into 96-well optical bottom black plates (Thermo Scientific, MA, USA) along with different concentrations of compound to each well. The final concentration of DMSO, the solvent used to prepare the stock solutions of compounds, was never higher than 0.1%. All of the compounds’ concentrations and controls were assayed by triplicate.

As a reminder, the IC50 is the midpoint of a concentration-inhibition curve. As usually defined, the EC50 is the concentration that produces a half-maximal response. On to `CC(C)OP(=O)(OC(C)C)c1cccc2c(-c3ccc(F)cc3)cc(-c3ccc(F)c(F)c3)nc12` [7o, Diisopropyl (2-(3,4-difluorophenyl)-4-(4-fluorophenyl)quinolin-8-yl)phosphonate], for which the IC50 was determined as 21 ± 4.05 µM in assay [1], 6.79 ± 3.87 µM in assay [2] and 18.6 ± 1.1 µM in assay [4]. Besides, the EC50 in assay [3] stood at 19.7 ± 1.73 µM; in assay [5], 19.3 ± 1.79 µM. The “SI (selectivity index)” value in assay [4] worked out at 0.9.

With `Cc1ccc(-c2cc(-c3ccc(F)cc3)nc3c(P(=O)(OC(C)C)OC(C)C)cccc23)cc1` [7p, Diisopropyl (2-(4-fluorophenyl)-4-(p-tolyl)quinolin-8-yl)phosphonate], the figures for the IC50 in assay [1], in assay [2] and in assay [4] were 14.4 ± 1.69 µM, 6.84 ± 1.74 µM and 21.2 ± 3.5 µM, respectively. In addition, the values for the half-maximal effective concentration (EC50) in assay [3] and in assay [5] were 24.3 ± 2.53 µM and 5.01 ± 0.35 µM, respectively. For the same compound, the “SI (selectivity index)” value in assay [4] was determined as 0.9.

As for `Cc1ccc(-c2cc(-c3ccc(F)c(F)c3)nc3c(P(=O)(OC(C)C)OC(C)C)cccc23)cc1` [7q, Diisopropyl (2-(3,4-difluorophenyl)-4-(p-tolyl)quinolin-8-yl)phosphonate], the IC50 amounted to 12.3 ± 0.71 µM in assay [1], 8.24 ± 2.42 µM in assay [2] and 28.3 ± 9.16 µM in assay [4]. The EC50 was found to be 13.9 ± 3.65 µM in assay [3] and 7.46 ± 0.76 µM in assay [5]. For the same compound, in assay [4], the “SI (selectivity index)” value was 2.

Consider `CCOP(=O)(OCC)c1ccc2nc(-c3ccc(F)cc3)cc(-c3ccccc3)c2c1` [7r, Diethyl (2-(4-fluorophenyl)-4-phenylquinolin-6-yl)phosphonate], for which the values for the IC50 in assay [1], in assay [2] and in assay [4] were 36.9 ± 8.06 µM, 2.8 ± 1.24 µM and 28.1 ± 1.23 µM, respectively. In addition, the EC50 is 29.2 ± 14 µM in assay [3] and 15.2 ± 1.14 µM in assay [5]. For the same compound, the “SI (selectivity index)” value in assay [4] is 1.

On to `CCOP(=O)(OCC)c1ccc2nc(-c3ccc(F)c(F)c3)cc(-c3ccccc3)c2c1` [7s, Diethyl (2-(3,4-difluorophenyl)-4-phenylquinolin-6-yl)phosphonate], for which the concentration for half-maximal inhibition (IC50) came to 19.2 ± 1.13 µM in assay [1], 6.19 ± 0.67 µM in assay [2] and 26.2 ± 0.51 µM in assay [4]. Moreover, the EC50 in assay [3] is 14.2 ± 2.83 µM; in assay [5], 14.7 ± 1.78 µM. In addition, in assay [4], the “SI (selectivity index)” value came out at 1.8.

For the compound `CCOP(=O)(OCC)c1ccc2nc(-c3ccc(F)cc3)cc(-c3ccc(F)cc3)c2c1` [7t, Diethyl (2,4-bis(4-fluorophenyl)quinolin-6-yl)phosphonate], the results for the IC50 in assay [1], in assay [2] and in assay [4] were more than 50 µM, 2.85 ± 1.26 µM and 45 ± 10.2 µM, respectively. Further, the values for the EC50 in assay [3] and in assay [5] were 31.5 ± 2.71 µM and 16.7 ± 0.72 µM, respectively. Besides, the “SI (selectivity index)” value in assay [4] is on record as 1.4.

Turning to `CCOP(=O)(OCC)c1ccc2nc(-c3ccc(F)c(F)c3)cc(-c3ccc(F)cc3)c2c1` [7u, Diethyl (2-(3,4-difluorophenyl)-4-(4-fluorophenyl)quinolin-6-yl)phosphonate], the IC50 was more than 50 µM in assay [1], 4.33 ± 1.11 µM in assay [2] and more than 100 µM in assay [4]. Also, the concentration for a half-maximal effect (EC50) in assay [3] came out at 26.4 ± 2.2 µM; in assay [5] it was 7.07 ± 0.61 µM. The “SI (selectivity index)” value in assay [4] is reported as more than 3.8.

With `CCOP(=O)(OCC)c1ccc2nc(-c3ccc(F)cc3)cc(-c3ccc(C)cc3)c2c1` [7v, Diethyl (2-(4-fluorophenyl)-4-(p-tolyl)quinolin-6-yl)phosphonate], the IC50 was more than 50 µM in assay [1], 0.84 ± 0.23 µM in assay [2] and 11.2 ± 4.42 µM in assay [4]. Besides, the EC50 in assay [3] is 17.6 ± 7.81 µM; in assay [5], 7.02 ± 0.94 µM. The “SI (selectivity index)” value in assay [4] is recorded as 0.6.

Turning to `CCOP(=O)(OCC)c1ccc2nc(-c3ccc(F)c(F)c3)cc(-c3ccc(C)cc3)c2c1` [7x, Diethyl (2-(3,4-difluorophenyl)-4-(p-tolyl)quinolin-6-yl)phosphonate], the IC50 in assay [1] is more than 50 µM; in assay [2], 3.05 ± 0.86 µM; in assay [4] it was 32.3 ± 3.36 µM. The figures for the EC50 in assay [3] and in assay [5] were 33 ± 6.55 µM and 21.3 ± 2.34 µM, respectively. The “SI (selectivity index)” value in assay [4] was 1.
